In brackets after ≈: the same amount, converted by molar mass. Counter-ions that a name gives are not always drawn.
What was measured:
[1] = system: Herpes simplex type 1 virus (HFEM strain); assay: Plaque reduction, Herpes simplex type 1 virus (HFEM strain) in Vero cells (Method 1); format: cell-based; details: 50% reduction in number of virus plaques, 4 days at 37° C.; for IC50: Human alphaherpesvirus 1, Vero, 96 h, read-out: PDD50 Herpes simplex type 1 virus HFEM strain in Vero cells
Method: (§1) Vero (Arican Green Monkey Kidney) cells were grown to confluence in 24 well multidishes, each well being 1.6 cm in diameter. The cells were infected with Herpes simplex type 1 virus (HFEM strain) and overlaid with 0.5 ml of 0.9% agarose (w/v) in maintenance medium. The test compound, prepared in maintenance medium in concentrations ranging from 100 to 0.3 μg/ml in half-log dilution steps, was added in 0.5 ml volume. The virus infected cultures were then incubated at 37° C. for 4 days before fixing in 4% formaldehyde solution and staining with carbol fuchsin.

[2] = system: Herpes simplex type 1 virus, strain SC16; assay: Virus cytopathic effect (CPE) reduction, Herpes simplex type 1 virus strain SC16 in MRC-5 cells (Method 2); format: cell-based; details: 50% reduction of virus CPE, 3 days at 37° C.; for IC50: Human alphaherpesvirus 1, SC16, MRC5, 72 h, read-out: PDD50 Herpes simplex type 1 virus SC16 strain in MRC-5 cells
Method: (§2) MRC-5 cells were infected in suspension with Herpes simplex type 1 virus, strain SC16. The infected cell suspension was dispensed (0.1 ml) in 96 well microtitre plates containing the test drugs in maintenance medium in concentrations ranging from 100 to 0.03 μg/ml in half-log dilution steps (0.1 ml per well). The plates were then icubated at 37° C. for 3 days when the virus cytopathic effect (CPE) in the control wells reached 100%. The plates were fixed in 4% formaldehyde solution and stained with carbol fuchsin. […] Plates using uninfected cells were run in parallel to determine the minimum concentration of test compound which caused cytotoxicity (MTD).

[3] = system: Herpes simplex type 2 virus (MS strain); assay: Plaque reduction, Herpes simplex type 2 virus (MS strain) in Vero cells (Method 1); format: cell-based; details: Human alphaherpesvirus 2, Method 1, plaque reduction, read-out: PDD50 Herpes simplex type 2 virus MS strain in Vero cells
Method: as §1
(§3) Compounds were also tested against Herpes simplex type 2 virus (MS strain) in Vero cells using Method 1 and in MRC-5 cells using Method 2. In the latter test, the incubation time was reduced to 24 hours.

[4] = system: Herpes simplex type 2 virus (MS strain); assay: Virus CPE reduction, Herpes simplex type 2 virus (MS strain) in MRC-5 cells (Method 2, 24 hours incubation); format: cell-based; details: Human alphaherpesvirus 2, MRC5, Method 2, CPE reduction, incubation 24 hours, read-out: PDD50 Herpes simplex type 2 virus MS strain in MRC-5 cells
Method: as §2, §3

[5] = Blood concentration of 9-(4-hydroxy-3-hydroxymethylbut-1-yl)guanine in mice after oral administration of derivatives (Method 3); format: in vivo; details: female Balb/C mice, oral gavage 0.2 mmoles/kg of administered compound, blood 15 minutes later, pooled from three mice; analyte 9-(4-hydroxy-3-hydroxymethylbut-1-yl)guanine
Method: Compounds were administered by oral gavage (0.2 mmoles/kg in 0.1 ml of 1% carboxymethyl cellulose) to 20 g female Balb/C mice which had been starved for 18 hours. Fifteen minutes later, blood was collected from three mice by cardiac puncture using heparinised syringes. Equal aliquots were pooled and an equal volume of 16% trichloroacetic acid added. Following centrifugation (8,500 g) to remove precipitated proteins, the resulting mixture was analysed by high performance liquid chromatography using a C18 Nova-Pak cartridge eluted with Buffer A (50 mM NaH2PO4, pH4.6) and Buffer B (10% Buffer A, 10% water, 80% methanol) in a gradient from 1% to 95% Buffer B. 9-(4-Hydroxy-3-hydroxymethylbut-1-yl)guanine was assayed with a Pye-Unicam PU4021 u.v. detector set at 254 nm.

Structure (SMILES)	IC50 [1] [µg/mL]	melting point [°C]	IC50 [3] [µg/mL]	IC50 [2] [µg/mL]	IC50 [4] [µg/mL]	other results
CC(=O)OCC(CO)CCn1cnc2c(=O)[nH]c(N)nc21 (stereo not shown) [Example 31, 9-(4-Acetoxy-3-hydroxymethylbut-1-yl)guanine]	24 (≈ 81.3 µM)	194 to 200		10 (≈ 33.9 µM)		
COc1nc(N)nc2c1ncn2CCC(CO)CO [Example 15, 2-Amino-9-(4-hydroxy-3-hydroxymethylbut-1-yl)-6-methoxypurine]	> 100	117 to 119	63 (≈ 236 µM)	> 100	49 (≈ 183 µM)	
CC(C)Oc1nc(N)nc2c1ncn2CCC(CO)CO [Example 38, 2-Amino-9-(4-hydroxy-3-hydroxymethylbut-1-yl)-6-isopropoxypurine]		111.5 to 113.5				
Nc1nc2c(ncn2CCC(CO)CO)c(=O)[nH]1.[Na] [Example 12, 9-(4-Hydroxy-3-hydroxymethylbut-1-yl)guanine, Sodium Salt]	2.2			0.7		
CC(=O)OCC(CCn1cnc2c(=O)[nH]c(N)nc21)COC(C)=O [Example 22, 9-(4-Acetoxy-3-acetoxymethylbut-1-yl)guanine]	> 100	202 to 205	> 100	> 100	83 (≈ 246 µM)	
CCCCCC(=O)OCC(CO)CCn1cnc2c(=O)[nH]c(N)nc21 (stereo not shown) [Example 33, 9-(4-Hexanoyloxy-3-hydroxymethylbut-1-yl)guanine]		179 to 181				
CCCCCC(=O)Nc1nc2c(ncn2CCC(CO)CO)c(=O)[nH]1 [Example 37, N^2-Hexanoyl-9-(4-hydroxy-3-hydroxymethylbut-1-yl)guanine]		86 to 88				
CC(=O)Nc1nc2c(ncn2CCC(CO)CO)c(=O)[nH]1 [Example 36, N^2-Acetyl-9-(4-hydroxy-3-hydroxymethylbut-1-yl)guanine]		143 to 146				
Nc1nc2c(ncn2CCC(CO)COC(=O)c2ccccc2)c(=O)[nH]1 (stereo not shown) [Example 32, 9-(4-Benzoyloxy-3-hydroxymethylbut-1-yl)guanine]	95 (≈ 266 µM)	156 to 168		3 (≈ 8.39 µM)		
Nc1nc2c(ncn2CCC(CO)CO)c(=O)[nH]1 [Example 13, 9-(4-Hydroxy-3-hydroxymethylbut-1-yl)guanine, Potassium Salt]						PDD50 Herpes simplex type 1 virus HFEM strain in Vero cells ([1]; Potassium Salt): 1.7 µg/mL; PDD50 Herpes simplex type 1 virus SC16 strain in MRC-5 cells ([2]; Potassium Salt): 0.7 µg/mL
CCC(=O)OCC(CCn1cnc2c(=O)[nH]c(N)nc21)COC(=O)CC [Example 23, 9-(4-Propionyloxy-3-propionyloxymethylbut-1-yl)guanine]	> 100		> 100	25 (≈ 68.4 µM)	85 (≈ 233 µM)	
Nc1nc2c(ncn2CCC(CO)CO)c(=O)[nH]1 [Example 4, 9-(4-Hydroxy-3-hydroxymethylbut-1-yl)guanine]	1.3 (≈ 5.13 µM)		2.3 (≈ 9.08 µM)	0.9 (≈ 3.55 µM)	0.6 (≈ 2.37 µM)	
N.N.Nc1nc2c(ncn2CCC(CO)COP(=O)(O)O)c(=O)[nH]1 (stereo not shown) [Example 35, 9-(4-Hydroxy-3-hydroxymethylbut-1-yl)guanine 4′-Phosphate Diammonium Salt]						Concentration of Example 4 in Blood [5]: 1100 ng/mL

Second part, led by results:

IC50 [1] [µg/mL]	melting point [°C]	IC50 [3] [µg/mL]	Structure (SMILES)	IC50 [2] [µg/mL]	IC50 [4] [µg/mL]	other results
	195 to 198		Nc1nc2c(ncn2CCC(COC=O)COC=O)c(=O)[nH]1 [Example 26, 9-(4-Formyloxy-3-formyloxymethylbut-1-yl)guanine]			
1.9 (≈ 4.23 µM)	198.5 to 201	1.6 (≈ 3.56 µM)	CCCCCC(=O)OCC(CCn1cnc2c(=O)[nH]c(N)nc21)COC(=O)CCCCC [Example 25, 9-(4-Hexanoyloxy-3-hexanoyloxymethylbut-1-yl)guanine]	1 (≈ 2.22 µM)	0.9 (≈ 2 µM)	
	173 to 175		Nc1nc(Oc2ccccc2)c2ncn(CCC(CO)CO)c2n1 [Example 39, 2-Amino-9-(4-hydroxy-3-hydroxymethylbut-1-yl)-6-phenoxypurine]			
	187 to 190		Nc1nc(N)c2ncn(CCC(CO)CO)c2n1 [Example 21, 2,6-Diamino-9-(4-hydroxy-3-hydroxymethylbut-1-yl)purine]			
> 100		> 100	CCC(=O)Nc1nc2c(ncn2CCC(COC(=O)CC)COC(=O)CC)c(=O)[nH]1 [Example 24, N^2-Propionyl-9-(4-propionyloxy-3-propionyloxymethyl-but-1-yl)guanine]	> 100	65 (≈ 154 µM)	
	225 to 237		CC(C)(C)C(=O)OCC(CCn1cnc2c(=O)[nH]c(N)nc21)COC(=O)C(C)(C)C [Example 30, 9-(4-Pivalyloxy-3-pivalyloxymethylbut-1-yl)guanine]			
13 (≈ 29.5 µM)		2.8 (≈ 6.34 µM)	Nc1nc2c(ncn2CCC(COC(=O)n2ccnc2)COC(=O)n2ccnc2)c(=O)[nH]1 [Example 27, 9-[4-(N-Imidazolylcarbonyloxy)-3-(N-imidazolylcarbonyloxymethyl)-but-1-yl]guanine]	1.5 (≈ 3.4 µM)	5.7 (≈ 12.9 µM)	
16 (≈ 32.5 µM)	183 to 191		CCCCCCCCCCCCCCCC(=O)OCC(CO)CCn1cnc2c(=O)[nH]c(N)nc21 (stereo not shown) [Example 34, 9-(4-Hexadecanoyloxy-3-hydroxymethylbut-1-yl)guanine]	2 (≈ 4.07 µM)		
	150 to 152		CCOc1nc(N)nc2c1ncn2CCC(CO)CO [Example 16, 2-Amino-6-ethoxy-9-(4-hydroxy-3-hydroxymethylbut-1-yl)purine]			
	146 to 147.5		Nc1nc(OCc2ccccc2)c2ncn(CCC(CO)CO)c2n1 [Example 17, 2-Amino-6-benzyloxy-9-(4-hydroxy-3-hydroxymethylbut-1-yl)purine]			

Reference: patent US6573378B1, “Antiviral guanine derivatives” (Novartis International Pharmaceutical Ltd., priority 1983, dated 2003)
